Assay results as given in patent publication US9061030B2, “sGC stimulators” (IRONWOOD PHARMACEUTICALS, INC., priority 2010, dated 2015).

What was measured:
[1] = molecular target: T1, soluble guanylate cyclase (sGC) (Homo sapiens, UniProt Q02108+Q02153); assay: sGC-HEK-cGMP assay; assay type: cell-based; details: HEK293 cells, 10 μM SNP, percentage of sGC activity obtained with positive control BAY 41-2272 (= 100%); for Emax at 10 µM: compound at 10 μM; for Emax at 30 µM: compound at 30 μM
T1 construct: endogenously expressing soluble guanylate cyclase (sGC); endogenous in cells; host or cells: HEK293
T1 sequence (Q02153 1-619): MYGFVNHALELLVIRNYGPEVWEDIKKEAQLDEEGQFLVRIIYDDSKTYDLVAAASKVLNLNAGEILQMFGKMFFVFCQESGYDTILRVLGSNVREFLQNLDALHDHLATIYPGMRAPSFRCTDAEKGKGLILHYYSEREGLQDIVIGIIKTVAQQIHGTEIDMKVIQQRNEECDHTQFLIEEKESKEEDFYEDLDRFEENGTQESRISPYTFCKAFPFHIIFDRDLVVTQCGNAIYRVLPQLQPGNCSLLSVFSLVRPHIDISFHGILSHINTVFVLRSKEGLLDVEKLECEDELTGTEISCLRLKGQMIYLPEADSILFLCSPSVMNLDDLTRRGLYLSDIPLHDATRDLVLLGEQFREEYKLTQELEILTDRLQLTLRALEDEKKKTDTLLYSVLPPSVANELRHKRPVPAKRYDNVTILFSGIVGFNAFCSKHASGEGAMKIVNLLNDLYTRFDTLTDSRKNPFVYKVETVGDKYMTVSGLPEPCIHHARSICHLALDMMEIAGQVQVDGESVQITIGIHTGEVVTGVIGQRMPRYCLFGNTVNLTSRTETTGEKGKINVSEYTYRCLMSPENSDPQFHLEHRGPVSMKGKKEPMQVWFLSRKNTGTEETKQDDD
T1 sequence (Q02108 1-690): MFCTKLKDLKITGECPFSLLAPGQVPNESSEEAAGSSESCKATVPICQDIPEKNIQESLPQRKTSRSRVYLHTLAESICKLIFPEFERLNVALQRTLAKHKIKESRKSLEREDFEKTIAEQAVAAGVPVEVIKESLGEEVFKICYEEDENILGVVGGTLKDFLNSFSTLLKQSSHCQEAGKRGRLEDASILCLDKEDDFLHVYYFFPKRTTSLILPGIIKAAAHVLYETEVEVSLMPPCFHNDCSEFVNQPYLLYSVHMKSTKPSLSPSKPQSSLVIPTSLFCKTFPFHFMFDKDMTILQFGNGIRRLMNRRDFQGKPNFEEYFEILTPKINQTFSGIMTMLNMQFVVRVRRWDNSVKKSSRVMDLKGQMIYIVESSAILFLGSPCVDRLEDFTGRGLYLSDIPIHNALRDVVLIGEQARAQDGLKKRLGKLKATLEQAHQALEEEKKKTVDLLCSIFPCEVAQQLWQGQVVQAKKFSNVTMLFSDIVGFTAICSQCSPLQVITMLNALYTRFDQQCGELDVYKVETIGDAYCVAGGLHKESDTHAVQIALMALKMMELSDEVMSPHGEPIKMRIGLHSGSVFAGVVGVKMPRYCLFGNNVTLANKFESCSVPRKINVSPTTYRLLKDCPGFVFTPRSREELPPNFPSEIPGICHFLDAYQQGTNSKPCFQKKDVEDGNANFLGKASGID
Procedure: Human embryonic kidney cells (HEK293), endogenously expressing soluble guanylate cyclase (sGC), were used to evaluate the activity of the test compounds. Compounds stimulating the sGC receptor should cause an increase in the intracellular concentration of cGMP. HEK 293 cells were seeded in Dulbecco's Modification of Eagle's Medium supplemented with fetal bovine serum (10% final) and L-glutamine (2 mM final) in a 200 μL volume at a density of 1×10^5 cells/well in a poly-D-lysine coated 96 well flat bottom plate and grown overnight at 37° C. Medium was aspirated and cells were washed with 1× Hank's Buffered Saline Salt Solution (200 μL). Cells were then incubated for 15 minutes at 37° C. with 0.5 mM 3-isobutyl-1-methylxanthine (200 μL). Test article was then added to the assay mixture (2 μL) and incubated in the presence of 10 μM Sodium Nitroprusside (SNP) at 37° C. for 10 minutes. After the 10 minute incubation, the assay mixture was aspirated and 0.1M HCl (200 μL) was added to the cells. The plate was incubated at 4° C. for 30 minutes in the 0.1M HCl to stop the reaction and lysed the cells. The plates were then centrifuged at 1,200 g for 5 minutes at room temperature. Supernatants were collected and transferred to a new flat bottom 96 well plate for analysis. Vehicle controls were carried out using DMSO (1%). A known sGC stimulator, BAY 41-2272, was used as the positive control.
Samples were diluted with an equal volume of 1 M Ammonium Acetate (pH 7) to neutralize samples for better chromatography. A 2×cGMP standard curve was prepared in 0.1 M HCl and then diluted with an equal volume of 1 M Ammonium Acetate, with the following final concentrations in nM: 1024, 512, 256, 128, 64, 32, 16, 8, 4, 2, 1.cGMP concentrations were determined from each sample using the LC/MS conditions (Table 2 below) and calculated standard curve. EC50 values were calculated from concentration-response curves generated with GraphPad Prism Software.
The biological activities of some of the compounds according to Formula IA or Formula IB determined with the sGC-HEK assay are summarized in Table 3 below.

[2] = molecular target: T2, Human soluble guanylate cyclase enzyme (hsGC) (Homo sapiens, UniProt Q02108+Q02153); assay: Purified human sGC enzyme activity assay (with or without SNP); assay type: biochemical; details: 30 μM compound; for sGC Enzyme Activity Increase at 30 μM with SNP: 1 μM SNP, specific activity vs DMSO and SNP; for sGC Enzyme Activity Increase at 30 μM without SNP: specific activity vs DMSO control
T2 construct: purchased Enzo Inc. ALX-201-177
T2 sequence (Q02153 1-619): T1 sequence (Q02153 1-619)
T2 sequence (Q02108 1-690): T1 sequence (Q02108 1-690)
Procedure: Human soluble guanylate cyclase enzyme (hsGC) obtained from Enzo Inc. (P/N: ALX-201-177) was used to evaluate the activity of test compounds. The assay reactions contained 0.1 M Tris (pH 8.0), 0.5 mg/mL BSA (pH 8.0), 2 mM DTT, 2 mM MgCl2, 300 μM GTP, 1 mM 3-isobutyl-1-methylxanthine (IBMX) and 5 ng human soluble guanylate cyclase enzyme. Test compounds in DMSO were then added (2 μL, 10 or 30 μM final concentration) and incubated (200 μL, 96-well plate format) at 37° C. for 30 minutes. The controls were carried out using 2 μL DMSO. After the 30 minute incubation, the reaction was stopped with the addition of 200 μL of cold methanol. The plate was then centrifuged at 3,200 rpm for 10 minutes at room temperature. Supernatants (200 μL) were collected and transferred to a new 96 well plate for analysis.
An 8 point cGMP (Sigma-Aldrich P/N: G6129) standard curve was prepared in assay buffer ranging from 0.156-20 μM. Samples for the cGMP standard curve were then diluted with an equal volume of methanol resulting in final cGMP concentrations of 0.078-10 μM.
The cGMP standard curve was generated using GraphPad Prism Software.
Calculations: Specific Activity was determined by the amount of cGMP formed (nmoles) per mg of sGC per min. Enzyme activity “fold-change” was calculated by dividing the Specific Activity for a test compound by the Specific Activity of DMSO control.
The enzymatic activity fold-change of the purified human sGC enzyme determined in the presence of each of the test compounds individually at 10 or 30 μm without the addition of sodium nitroprusside (SNP), a nitric oxide donor, is presented in Table 5.
Enzyme assays were also performed as described above, but in the presence of 1 μM sodium nitroprusside (SNP). Enzymatic activity fold-changes are reported for selected test compounds in the presence of both SNP and the test compound. These were calculated by dividing the specific activity (activity increase) for the test compound dissolved in DMSO and SNP over the specific activity for the mixture of DMSO and SNP.

Compound	Emax at 10 µM [1] [%]	Emax at 30 µM [1] [%]	sGC Enzyme Activity Increase at 30 μM with SNP [2]	sGC Enzyme Activity Increase at 30 μM without SNP [2]
Fc1ccccc1Cn1nc(-c2nccs2)nc1-c1ccccn1 [Compound I-26]	10 to 20	10 to 20	D (D = 5 to <10 fold increase)	C (C = 2 to <5 fold increase)
Fc1ccccc1Cn1nc(-c2ncccn2)nc1-c1ccccc1 [Compound I-27]	0 to 5	0 to 5	B (B = 1 to <2 fold increase)	B (B = 1 to <2 fold increase)
Fc1ccccc1Cn1nc(-c2ncccn2)nc1-c1ccccn1 [Compound I-32]	0 to 5	10 to 20	C (C = 2 to <5 fold increase)	C (C = 2 to <5 fold increase)
COC(=O)c1nc(-c2ccccn2)nn1Cc1ccccc1F [Compound I-35, methyl 1-(2-fluorobenzyl)-3-(pyridin-2-yl)-1H-1,2,4-triazole-5-carboxylate]	0 to 5	0 to 5	C (C = 2 to <5 fold increase)	B (B = 1 to <2 fold increase)
Fc1ccccc1Cn1nc(-c2nccs2)nc1-c1cc(Br)ccn1 [Compound I-37, 2-(5-(4-bromopyridin-2-yl)-1-(2-fluorobenzyl)-1H-1,2,4-triazol-3-yl)thiazole]	10 to 20	20 to 40	D (D = 5 to <10 fold increase)	C (C = 2 to <5 fold increase)
Fc1ccc(-c2nc(-c3nccs3)nn2Cc2ccccc2F)nc1 [Compound I-39]	5 to 10	5 to 10	C (C = 2 to <5 fold increase)	B (B = 1 to <2 fold increase)
Fc1ccccc1Cn1nc(-c2ccccn2)nc1-n1ccnc1 [Compound I-49, 2-(1-(2-fluorobenzyl)-5-(1H-imidazol-1-yl)-1H-1,2,4-triazol-3-yl)pyridine]	0 to 5	5 to 10	B (B = 1 to <2 fold increase)	B (B = 1 to <2 fold increase)

The remaining lines, values ahead:

Emax at 10 µM [1] [%]	Emax at 30 µM [1] [%]	sGC Enzyme Activity Increase at 30 μM with SNP [2]	sGC Enzyme Activity Increase at 30 μM without SNP [2]	Compound
0 to 5	0 to 5	B (B = 1 to <2 fold increase)	B (B = 1 to <2 fold increase)	Cc1nc(-c2ncccn2)nn1Cc1ccccc1F [Compound I-28]
0 to 5	0 to 5	C (C = 2 to <5 fold increase)	B (B = 1 to <2 fold increase)	Fc1ccccc1Cn1nc(-c2nccs2)nc1-c1ncccn1 [Compound I-29]
0 to 5	0 to 5	C (C = 2 to <5 fold increase)	B (B = 1 to <2 fold increase)	Fc1ccccc1Cn1nc(-c2ccccn2)nc1-c1ncccn1 [Compound I-31]
0 to 5	0 to 5	B (B = 1 to <2 fold increase)	B (B = 1 to <2 fold increase)	Fc1ccccc1Cn1nc(-c2cc(Br)ccn2)nc1-c1nccs1 [Compound I-36, 2-(3-(4-bromopyridin-2-yl)-1-(2-fluorobenzyl)-1H-1,2,4-triazol-5-yl)thiazole]
0 to 5	5 to 10	C (C = 2 to <5 fold increase)	B (B = 1 to <2 fold increase)	Fc1ccccc1Cn1nc(-c2ccccn2)nc1-c1nnco1 [Compound I-42, 2-(1-(2-fluorobenzyl)-3-(pyridin-2-yl)-1H-1,2,4-triazol-5-yl)-1,3,4-oxadiazole]
0 to 5	0 to 5	B (B = 1 to <2 fold increase)	B (B = 1 to <2 fold increase)	Fc1ccccc1Cn1nc(-c2cocn2)nc1-c1ncccn1 [Compound I-45]
0 to 5	0 to 5	B (B = 1 to <2 fold increase)	B (B = 1 to <2 fold increase)	Nc1ccnc(-c2nc(-c3nccs3)nn2Cc2ccccc2F)c1 [Compound I-47]
20 to 40	20 to 40	E (E = 10 to <20 fold increase)	C (C = 2 to <5 fold increase)	Fc1ccccc1Cn1nc(-c2cc(Br)ccn2)nc1-c1cscn1 [Compound I-51, 4-(3-(4-bromopyridin-2-yl)-1-(2-fluorobenzyl)-1H-1,2,4-triazol-5-yl)thiazole]
